Legend:
[1] = test system: Na+-dependent Cl-/HCO3- exchanger (NCBE); assay: Inhibition of the Na+-dependent Cl-/HCO3- exchanger (NCBE) in human endothelial cells (BCECF fluorescence, FLIPR, pHi recovery); format: cell-based; conditions: inhibitor concentration 10 μM; human endothelial cells (ECV-304); 50 μM HOE 642 present; 35° C., 2 minutes
Procedure: Inhibition of the Na^+-dependent Cl^−/HCO3^− Exchanger (NCBE) in Human Endothelial Cells
Human endothelial cells (ECV-304) were detached from culture bottles with the aid of trypsin/EDTA buffer (0.05/0.02% in phosphate buffer) and, after centrifugation (100 g, 5 min), taken up in a buffered salt solution (mmol/l: 115 NaCl, 20 NH4Cl, 5 KCl, 1 CaCl2, 1 MgSO4, 20 N-(2-hydroxyethyl)piperazine-N-2-ethanesulfonic acid (HEPES), 5 glucose and 1 g/l of bovine serum albumin; pH 7.4). This cell suspension was incubated at 37° C. for 20 min with 5 μM BCECF-acetoxymethyl ester. The cells were then washed and resuspended in a sodium- and bicarbonate-free buffer solution (mmol/l: 5 HEPES, 133.8 choline chloride, 4.7 KCl, 1.25 MgCl2, 0.97 K2HPO4, 0.23 KH2PO4, 5 glucose; pH 7.4).
For subsequent fluorescence measurement in an FLIPR (Fluorescent Imaging Plate Reader) 100 μl of this cell suspension having 20,000 cells in each case were pipetted per well into a 96-well microtiter plate and this microtiter plate was centrifuged (100 g, 5 min).
In the FLIPR, 100 μl of buffer solution in each case were then removed from a further pretreated microtiter plate and pipetted into each of the 96 wells of the measurement plate. A bicarbonate- and sodium-containing buffer solution (mmol/l: 5 HEPES, 93.8 NaCl, 40 NaHCO3, 4.7 KCl, 1.25 CaCl2, 1.25 MgCl2, 0.97 Na2HPO4, 0.23 NaH2PO4, 5 glucose; pH 7.4) which contained 50 μM HOE 642 was used for a 100% control, i.e. a recovery of the intracellular pH (pHi) via the NCBE. For a 0% control, i.e. no pHi recovery at all, a bicarbonate-free, sodium-containing buffer solution (mmol/l: 5 HEPES, 133.8 NaCl, 4.7 KCl, 1.25 CaCl2, 1.25 MgCl2, 0.97 Na2HPO4, 0.23 NaH2PO4, 5 glucose; pH 7.4) was employed, to which 50 μM HOE 642 were likewise added. The compounds according to the invention were added to the sodium- and bicarbonate-containing solution in various concentrations.
After addition of the buffer solutions to the dye-loaded, acidified cells in the measurement plate, the rise in the fluorescence intensity, which corresponded to a rise in the pHi, in each well of the microtiter plate was determined. The kinetics were in this case recorded at 35° C. for a period of 2 minutes.
The increase in the fluorescence intensities for different concentrations of the compounds according to the invention was related to the two controls and from this the inhibitory action of the substances was determined.

Question: For `COCCOc1nc(-c2ccc(C(C)C)cc2)n(Cc2ccc(-c3ccccc3S(=O)(=O)NC#N)cc2)c1C=O` [Example 3, 4′-[5-Formyl-2-(4-isopropylphenyl)-4-(2-methoxyethoxy)imidazol-1-ylmethyl]biphenyl-2-sulfonylcyanamide], which “Residual activity of the NCBE at an inhibitor concentration of 10 μM (in %)” value [1] is on record?
Answer: The value was 29.6%.

Question: Which “Residual activity of the NCBE at an inhibitor concentration of 10 μM (in %)” value [1] does the source give for `COCCOc1nc(-c2ccccc2)n(Cc2ccc(-c3ccccc3S(=O)(=O)NC#N)cc2Cl)c1C=O` [Example 2, 3′-Chloro-4′-[5-formyl-4-(2-methoxyethoxy)-2-phenylimidazol-1-ylmethyl]-biphenyl-2-sulfonylcyanamide] here?
Answer: Its value is 18.9%.

Question: What about the melting point of the same compound?
Answer: Its melting point is 195 °C (dec.).

Question: With `COCCOc1cc(-c2ccccc2S(=O)(=O)NC#N)ccc1Cn1c(-c2ccccc2)nc(OCCOC)c1C=O` [Example 4, 4′-[5-Formyl-4-(2-methoxyethoxy)-2-phenylimidazol-1-ylmethyl]-3′-(2-methoxyethoxy)biphenyl-2-sulfonylcyanamide] as the compound, how does the “Residual activity of the NCBE at an inhibitor concentration of 10 μM (in %)” value [1] read?
Answer: Its value is 13.5%.

Question: And the melting point?
Answer: Its melting point is 162 °C.

Question: For `COCCOc1nc(-c2ccccc2)n(Cc2ccc(-c3ccccc3S(=O)(=O)NC#N)cc2S(C)(=O)=O)c1C=O` [Example 1, 4′-[5-Formyl-4-(2-methoxyethoxy)-2-phenylimidazol-1-ylmethyl]-3′-methanesulfonylbiphenyl-2-sulfonylcyanamide], which “Residual activity of the NCBE at an inhibitor concentration of 10 μM (in %)” value [1] is on record?
Answer: The value was 9.8%.

Question: And the melting point?
Answer: Its melting point is > 270 °C.
